# Results from ChEMBL document CHEMBL2407044, “Synthesis, Antiplasmodial Activity, and β-Hematin Inhibition of Hydroxypyridone-Chloroquine Hybrids” (ACS Med Chem Lett, 2013).
# Calls of active or inactive are those of the source. The calls are words filed in the database; no cut-off is given here.
# Assays:
# Plasmodium falciparum [1] = assay: Antiplasmodial activity against chloroquine-resistant Plasmodium falciparum W2 assessed as parasite survival after 2 days by YOYO-1 staining-based flow cytometric analysis; type: functional, organism-based; conditions: W2, 48 h
# [2] = Inhibition of beta-hematin formation after 60 mins relative to beta-hematin; type: functional
# Plasmodium falciparum [3] = assay: Antiplasmodial activity against chloroquine-sensitive Plasmodium falciparum 3D7 assessed as parasite growth inhibition after 24 hrs by [3H]-hypoxathine incorporation assay; type: functional, organism-based
# KB = assay: Cytotoxicity against human KB cells after 72 hrs by Alamar blue assay; type: cell-based
# Plasmodium falciparum [4] = assay: Antiplasmodial activity against chloroquine-resistant Plasmodium falciparum K1 assessed as parasite growth inhibition after 24 hrs by [3H]-hypoxathine incorporation assay; type: functional, organism-based
# [5] = Inhibition of beta-hematin formation at 10 times parental IC50 after 60 mins; type: functional
Compound,IC50 (Plasmodium falciparum [1]),IC50 [2],IC50 (Plasmodium falciparum [3]),"IC50 (KB; Homo sapiens, KB, 72 h)","IC50 (Plasmodium falciparum [4]; Plasmodium falciparum, K1)",inhibition [5],IC50 (KB; kb),IC50 (Plasmodium falciparum [4])
Cc1c(OCc2ccccc2)c(=O)ccn1CCNc1ccnc2cc(Cl)ccc12,9930 nM,0.93 equiv,490 nM,54000 nM,3150 nM,,,
COc1c(C)n(CCCCCCNc2ccnc3cc(Cl)ccc23)ccc1=O,90 nM,1.07 equiv,130 nM,47000 nM,2800 nM,,,
CCc1c(OCc2ccccc2)c(=O)ccn1CCCCNc1ccnc2cc(Cl)ccc12,100 nM,0.19 equiv,4 nM,9000 nM,130 nM,,,
Cc1c(O)c(=O)ccn1CCCCCCNc1ccnc2cc(Cl)ccc12,70 nM,0.18 equiv,390 nM,4000 nM,160 nM,,,
CCCCCCCCn1ccc(=O)c(OCc2ccccc2)c1C,,,,,,inactive,,
CCCCCCn1ccc(=O)c(OCc2ccccc2)c1C,,,,,,inactive,,
CCc1c(OCc2ccccc2)c(=O)ccn1CCCCCCNc1ccnc2cc(Cl)ccc12 [listing 1 of 2 here],,,10 nM,7000 nM,100 nM,,,
CCc1c(O)c(=O)ccn1CCCNc1ccnc2cc(Cl)ccc12,540 nM,1.3 equiv,120 nM,55000 nM,380 nM,,,
Cc1c(O)c(=O)ccn1CCNc1ccnc2cc(Cl)ccc12,280 nM,2.9 equiv,10800 nM,,32600 nM,,,
Cc1c(OCc2ccccc2)c(=O)ccn1C(C)C,,,,,,inactive,,
Cc1c(OCc2ccccc2)c(=O)ccn1C,,,,,,inactive,,
CCc1c(O)c(=O)ccn1CCCCCCNc1ccnc2cc(Cl)ccc12,90 nM,0.49 equiv,80 nM,44000 nM,610 nM,,,
Cc1c(OCc2ccccc2)c(=O)ccn1CCCCNc1ccnc2cc(Cl)ccc12,1120 nM,0.27 equiv,50 nM,119000 nM,2200 nM,,,
CCc1c(O)c(=O)ccn1CCNc1ccnc2cc(Cl)ccc12,1240 nM,1.1 equiv,400 nM,,890 nM,,,
Cc1c(OCc2ccccc2)c(=O)ccn1CCCNc1ccnc2cc(Cl)ccc12,2150 nM,0.49 equiv,280 nM,67000 nM,3570 nM,,,
CCc1c(OCc2ccccc2)c(=O)ccn1CCNc1ccnc2cc(Cl)ccc12,2590 nM,0.5 equiv,950 nM,51000 nM,8430 nM,,,
CCc1c(OCc2ccccc2)c(=O)ccn1CCCCCCNc1ccnc2cc(Cl)ccc12 [listing 2 of 2 here],20 nM,0.16 equiv,,,,,4000 nM,80 nM
CCc1c(OC)c(=O)ccn1CCCCNc1ccnc2cc(Cl)ccc12,210 nM,1.71 equiv,,,,,,
COc1c(C)n(CCCCNc2ccnc3cc(Cl)ccc23)ccc1=O,760 nM,0.75 equiv,70 nM,27000 nM,220 nM,,,
COc1cc([C@@H]2c3cc4c(cc3[C@H](O)[C@H]3COC(=O)[C@H]23)OCO4)cc(OC)c1OC [PODOFILOX],,,,0.7 nM,,,,
CCc1c(O)c(=O)ccn1CCCCNc1ccnc2cc(Cl)ccc12,160 nM,0.98 equiv,50 nM,76000 nM,270 nM,,,
CCc1c(OCc2ccccc2)c(=O)ccn1CCCNc1ccnc2cc(Cl)ccc12,2320 nM,0.41 equiv,120 nM,15000 nM,71600 nM,,,
Cc1c(O)c(=O)ccn1CCCCNc1ccnc2cc(Cl)ccc12,80 nM,0.66 equiv,30 nM,185000 nM,70 nM,,,
CCCCCCCCn1ccc(=O)c(O)c1C,,,2380 nM,,1800 nM,,,
Cc1c(OCc2ccccc2)c(=O)ccn1CCCCCCNc1ccnc2cc(Cl)ccc12,390 nM,0.25 equiv,35700 nM,158000 nM,4380 nM,,,
CCN(CC)CCCC(C)Nc1ccnc2cc(Cl)ccc12 (stereo not drawn) [CHLOROQUINE],,1.9 equiv,,34000 nM,,,,
CCc1c(OC)c(=O)ccn1CCCCCCNc1ccnc2cc(Cl)ccc12,220 nM,0.47 equiv,,,,,,
